Key:
Type in all cases: in vivo
Plutella xylostella [1] = test: Example B12: Plutella xylostella (Diamondback Moth), 96-well artificial diet; settings: 216 h, application rate of 500 ppm, eggs, 9 days after infestation
Experimental: Example B12: Plutella xylostella (Diamondback Moth)
96-well microtiter plates containing artificial diet were treated with aqueous test solutions, prepared from 10′000 ppm DMSO stock solutions, by a liquid handling robot. After drying, eggs (˜30 per well) were infested onto a netted lid which was suspended above the diet. The eggs hatch and L1 larvae move down to the diet. The samples were assessed for mortality 9 days after infestation.

Myzus persicae [2] = test: Example B11: Myzus persicae (Green Peach Aphid), 96-well sucrose solution; settings: 120 h, application rate of 50 ppm, 96-well sucrose solution under Parafilm, 5 days after infestation
Text: Example B11: Myzus persicae (Green Peach Aphid)
Test compounds prepared from 10′000 ppm DMSO stock solutions were applied by a liquid handling robot into 96-well microtiter plates and mixed with a sucrose solution. Parafilm was stretched over the 96-well microtiter plate and a plastic stencil with 96 holes was placed onto the plate. Aphids were sieved into the wells directly onto the Parafilm. The infested plates were closed with a gel blotting card and a second plastic stencil and then turned upside down. The samples were assessed for mortality 5 days after infestation.

Plutella xylostella [3] = test: Example B5: Plutella xylostella (Diamond Back Moth); settings: 192 h, application rate of 200 ppm, 24-well artificial diet, eggs, 8 days after infestation, read-out: control in at least one of the two categories (mortality or growth inhibition)
Experimental: Example B5: Plutella xylostella (Diamond Back Moth)
24-well microtiter plates with artificial diet were treated with aqueous test solutions prepared from 10′000 ppm DMSO stock solutions by pipetting. After drying, Plutella eggs were pipetted through a plastic stencil onto a gel blotting paper and the plate was closed with it. The samples were assessed for mortality and growth inhibition in comparison to untreated samples 8 days after infestation.

Chilo suppressalis = test: Example B4: Chilo suppressalis (Striped Rice Stemborer); settings: 144 h, application rate of 200 ppm, artificial diet, L2 larvae, 6 days after infestation, read-out: control in at least one of the three categories (mortality, anti-feedant or growth inhibition)
Method in brief: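 Artificial diet was treated with aqueous dilutions made from 10'000 ppm DMSO stocks, dried, then infested with L2 larvae at 6–8 per well. Mortality, antifeedant effect and growth inhibition were assessed against untreated samples 6 days after infestation.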

Spodoptera littoralis = test: Example B9: Spodoptera littoralis (Egyptian Cotton Leaf Worm), cotton leaf disc spray; settings: foliar, 72 h, application rate of 200 ppm, sprayed cotton leaf discs, L1 larvae, 3 days after infestation, read-out: control in at least one of the three categories (mortality, anti-feedant or growth inhibition)
Myzus persicae [4] = test: Example B7: Myzus persicae (Green Peach Aphid): Systemic Activity; settings: 144 h, test rate of 24 ppm, roots of pea seedlings in test solution, 6 days
Experimental: Example B7: Myzus persicae (Green Peach Aphid): Systemic Activity
Roots of pea seedlings infested with an aphid population of mixed ages were placed directly into aqueous test solutions prepared from 10′000 DMSO stock solutions. The samples were assessed for mortality 6 days after placing seedlings into test solutions.

Diabrotica balteata = test: Example B1: Diabrotica balteata (Corn Root Worm); settings: 96 h, application rate of 200 ppm, sprayed maize sprouts, L2 larvae, 4 days after infestation, read-out: control in at least one of the two categories (mortality or growth inhibition)
Experimental: Example B1: Diabrotica balteata (Corn Root Worm)
Maize sprouts placed onto an agar layer in 24-well microtiter plates were treated with aqueous test solutions prepared from 10′000 ppm DMSO stock solutions by spraying. After drying, the plates were infested with L2 larvae (6 to 10 per well). The samples were assessed for mortality and growth inhibition in comparison to untreated samples 4 days after infestation.

Euschistus heros = test: Example B2: Euschistus heros (Neotropical Brown Stink Bug); settings: 120 h, application rate of 200 ppm, sprayed soybean leaves, N2 nymphs, 5 days after infestation, read-out: control in at least one of the two categories (mortality or growth inhibition)
Experimental: Example B2: Euschistus heros (Neotropical Brown Stink Bug)
Soybean leaves on agar in 24-well microtiter plates were sprayed with aqueous test solutions prepared from 10′000 ppm DMSO stock solutions. After drying the leaves were infested with N2 nymphs. The samples were assessed for mortality and growth inhibition in comparison to untreated samples 5 days after infestation.

Myzus persicae [5] = test: Example B8: Myzus persicae (Green Peach Aphid): Intrinsic Activity; settings: 120 h, test rate of 12 ppm, 24-well sucrose solution under Parafilm, 5 days after infestation
Text: Example B8: Myzus persicae (Green Peach Aphid): Intrinsic Activity
Test compounds prepared from 10′000 ppm DMSO stock solutions were applied by pipette into 24-well microtiter plates and mixed with sucrose solution. The plates were closed with a stretched Parafilm. A plastic stencil with 24 holes was placed onto the plate and infested pea seedlings were placed directly on the Parafilm. The infested plate was closed with a gel blotting paper and another plastic stencil and then turned upside down. The samples were assessed for mortality 5 days after infestation.

[6] = tested on: Frankliniella occidentalis; test: Example B3: Frankliniella occidentalis (Western Flower Thrips): Feeding/Contact Activity; settings: foliar, 168 h, application rate of 200 ppm, sprayed sunflower leaf discs, population of mixed ages, 7 days after infestation
Experimental: Example B3: Frankliniella occidentalis (Western Flower Thrips): Feeding/Contact Activity
Sunflower leaf discs were placed on agar in 24-well microtiter plates and sprayed with aqueous test solutions prepared from […] stock solutions. After drying the leaf discs were infested with a Frankliniella population of mixed ages. The samples were assessed for mortality 7 days after infestation.

Myzus persicae [7] = test: Example B6: Myzus persicae (Green Peach Aphid): Feeding/Contact Activity; settings: foliar, 144 h, application rate of 200 ppm, sprayed sunflower leaf discs, aphid population of mixed ages, 6 days after infestation
Experimental: Example B6: Myzus persicae (Green Peach Aphid): Feeding/Contact Activity
Sunflower leaf discs were placed onto agar in a 24-well microtiter plate and sprayed with aqueous test solutions prepared from 10′000 ppm DMSO stock solutions. After drying, the leaf discs were infested with an aphid population of mixed ages. The samples were assessed for mortality 6 days after infestation.

CC(NC(=O)c1cc(C(F)(F)F)cc(C2(C#N)CC2)c1)c1nccnc1-c1ccc(F)cn1 (stereo not drawn) [P23, 3-(1-cyanocyclopropyl)-N-[1-[3-(5-fluoro-2-pyridyl)pyrazin-2-yl]ethyl]-5-(trifluoromethyl) benzamide]
≥ 80%: mortality at 500 ppm (Plutella xylostella [1]) | mortality at 50 ppm (Myzus persicae [2]) | percent control (mortality or growth inhibition) at 200 ppm (Plutella xylostella [3])

CC(NC(=O)c1cc(C(F)(F)F)cc(C2(C#N)CC2)c1)c1nccnc1-c1ncccn1 (stereo not drawn) [P25, 3-(1-cyanocyclopropyl)-N-[1-(3-pyrimidin-2-ylpyrazin-2-yl)ethyl]-5-(trifluoromethyl)benzamide]
≥ 80%: percent control (mortality, anti-feedant effect or growth inhibition) at 200 ppm (Chilo suppressalis) | percent control (mortality, anti-feedant effect or growth inhibition) at 200 ppm (Spodoptera littoralis) | mortality at 500 ppm (Plutella xylostella [1]) | mortality at 24 ppm (Myzus persicae [4]) | percent control (mortality or growth inhibition) at 200 ppm (Diabrotica balteata) | percent control (mortality or growth inhibition) at 200 ppm (Euschistus heros) | mortality at 50 ppm (Myzus persicae [2]) | mortality at 12 ppm (Myzus persicae [5]) | percent control (mortality or growth inhibition) at 200 ppm (Plutella xylostella [3])

CC(NC(=O)c1cc(C(F)(F)F)cc(S(=O)(=O)C2CC2)c1)c1nccnc1-c1ncccn1 (stereo not drawn) [P10, 3-cyclopropylsulfonyl-N-[1-(3-pyrimidin-2-ylpyrazin-2-yl)ethyl]-5-(trifluoromethyl) benzamide]
≥ 80%: percent control (mortality, anti-feedant effect or growth inhibition) at 200 ppm (Chilo suppressalis) | mortality at 24 ppm (Myzus persicae [4]) | mortality at 200 ppm [6] | percent control (mortality or growth inhibition) at 200 ppm (Euschistus heros) | mortality at 12 ppm (Myzus persicae [5]) | percent control (mortality or growth inhibition) at 200 ppm (Plutella xylostella [3])

CC(NC(=O)c1cc(C(F)(F)F)cc(C2(C#N)CC2)c1)c1nccnc1-c1ccccn1 (stereo not drawn) [P22, 3-(1-cyanocyclopropyl)-N-[1-[3-(2-pyridyl)pyrazin-2-yl]ethyl]-5-(trifluoromethyl) benzamide]
≥ 80%: percent control (mortality, anti-feedant effect or growth inhibition) at 200 ppm (Chilo suppressalis) | percent control (mortality, anti-feedant effect or growth inhibition) at 200 ppm (Spodoptera littoralis) | mortality at 500 ppm (Plutella xylostella [1]) | percent control (mortality or growth inhibition) at 200 ppm (Diabrotica balteata) | mortality at 50 ppm (Myzus persicae [2]) | percent control (mortality or growth inhibition) at 200 ppm (Plutella xylostella [3])

CC(NC(=O)c1cc(OC(F)F)cc(S(=O)(=O)C(F)(F)F)c1)c1nccnc1-c1ncccn1 (stereo not drawn) [P45, 3-(difluoromethoxy)-N-[1-(3-pyrimidin-2-ylpyrazin-2-yl)ethyl]-5-(trifluoromethylsulfonyl) benzamide]
≥ 80%: percent control (mortality, anti-feedant effect or growth inhibition) at 200 ppm (Chilo suppressalis) | percent control (mortality, anti-feedant effect or growth inhibition) at 200 ppm (Spodoptera littoralis) | mortality at 200 ppm (Myzus persicae [7]) | percent control (mortality or growth inhibition) at 200 ppm (Plutella xylostella [3])

CC(NC(=O)c1cc(C(F)(F)F)nc(C2(C#N)CC2)c1)c1nccnc1-c1ccccn1 (stereo not drawn) [P26, 2-(1-cyanocyclopropyl)-N-[1-[3-(2-pyridyl)pyrazin-2-yl]ethyl]-6-(trifluoromethyl)pyridine-4-carboxamide]
≥ 80%: percent control (mortality, anti-feedant effect or growth inhibition) at 200 ppm (Chilo suppressalis) | percent control (mortality, anti-feedant effect or growth inhibition) at 200 ppm (Spodoptera littoralis) | mortality at 500 ppm (Plutella xylostella [1]) | percent control (mortality or growth inhibition) at 200 ppm (Diabrotica balteata) | mortality at 50 ppm (Myzus persicae [2]) | percent control (mortality or growth inhibition) at 200 ppm (Plutella xylostella [3])

CC(NC(=O)c1cc(C2CC2)nc(C(F)(F)F)c1)c1nccnc1-c1ncccn1 (stereo not drawn) [P31, 2-cyclopropyl-N-[1-(3-pyrimidin-2-ylpyrazin-2-yl)ethyl]-6-(trifluoromethyl)pyridine-4-carboxamide]
≥ 80%: percent control (mortality, anti-feedant effect or growth inhibition) at 200 ppm (Chilo suppressalis) | percent control (mortality, anti-feedant effect or growth inhibition) at 200 ppm (Spodoptera littoralis) | percent control (mortality or growth inhibition) at 200 ppm (Diabrotica balteata) | mortality at 200 ppm [6] | percent control (mortality or growth inhibition) at 200 ppm (Euschistus heros) | mortality at 12 ppm (Myzus persicae [5]) | percent control (mortality or growth inhibition) at 200 ppm (Plutella xylostella [3])

CC(NC(=O)c1cc(OC(F)(F)F)cc(C2(C#N)CC2)c1)c1nccnc1-c1ncccn1 (stereo not drawn) [P46, 3-(1-cyanocyclopropyl)-N-[1-(3-pyrimidin-2-ylpyrazin-2-yl)ethyl]-5-(trifluoromethoxy) benzamide]
≥ 80%: percent control (mortality, anti-feedant effect or growth inhibition) at 200 ppm (Chilo suppressalis) | percent control (mortality, anti-feedant effect or growth inhibition) at 200 ppm (Spodoptera littoralis) | mortality at 24 ppm (Myzus persicae [4]) | percent control (mortality or growth inhibition) at 200 ppm (Diabrotica balteata) | mortality at 200 ppm (Myzus persicae [7]) | percent control (mortality or growth inhibition) at 200 ppm (Euschistus heros) | mortality at 12 ppm (Myzus persicae [5]) | percent control (mortality or growth inhibition) at 200 ppm (Plutella xylostella [3])

CC(NC(=O)c1cc(C(F)(F)F)cc(S(=O)(=O)C(F)(F)F)c1)c1nccnc1-c1ncccn1 (stereo not drawn) [P19, N-[1-(3-pyrimidin-2-ylpyrazin-2-yl)ethyl]-3-(trifluoromethyl)-5-(trifluoromethylsulfonyl) benzamide]
≥ 80%: percent control (mortality, anti-feedant effect or growth inhibition) at 200 ppm (Chilo suppressalis) | percent control (mortality, anti-feedant effect or growth inhibition) at 200 ppm (Spodoptera littoralis) | mortality at 500 ppm (Plutella xylostella [1]) | percent control (mortality or growth inhibition) at 200 ppm (Diabrotica balteata) | mortality at 50 ppm (Myzus persicae [2]) | mortality at 12 ppm (Myzus persicae [5]) | percent control (mortality or growth inhibition) at 200 ppm (Plutella xylostella [3])

CC(NC(=O)c1cc(C(F)(F)F)nc(C2(C#N)CC2)c1)c1nccnc1-c1ncccn1 (stereo not drawn) [P32, 2-(1-cyanocyclopropyl)-N-[1-(3-pyrimidin-2-ylpyrazin-2-yl)ethyl]-6-(trifluoromethyl)pyridine-4-carboxamide]
≥ 80%: percent control (mortality, anti-feedant effect or growth inhibition) at 200 ppm (Chilo suppressalis) | percent control (mortality, anti-feedant effect or growth inhibition) at 200 ppm (Spodoptera littoralis) | percent control (mortality or growth inhibition) at 200 ppm (Diabrotica balteata) | mortality at 200 ppm [6] | percent control (mortality or growth inhibition) at 200 ppm (Euschistus heros) | mortality at 12 ppm (Myzus persicae [5]) | percent control (mortality or growth inhibition) at 200 ppm (Plutella xylostella [3])
